Results on 5 molecules are retold here after patent publication US4902675A, “"2-pyridyl and 4-pyridyl phosphine gold (I) anti tumor complexes"” (SmithKline Beckman Corporation, priority 1986, dated 1990).

The conditions of series [1]: literature, Struck et al. 1966; cited from earlier work.
Another series concerns P388 leukemia. The series is described as follows: in vivo ip P388 lymphocytic leukemia mouse model, increase in lifespan. To be noted: mice bearing ip P388 leukemia; ip Days 1 through 5; figures separated by slashes are data from separate experiments; active if ≥25 percent ILS. The source says:
P388 lymphocytic leukemia is currently the most widely used animal tumor model for screening for antitumor agents and for detailed evaluation of active compounds. This tumor system is widely accepted as an antitumor agent screening tool because it is sensitive to virtually all of the clinically active antineoplastic agents; quantitative and reproducible; amenable for large-scale screening; and predictive for activity in other animal tumor models.
10^6 P388 leukemia cells are inoculated ip in B6D2F1 mice. Twenty-four hours later, if the tumor inoculum proves to be free of bacterial contamination (as determined by 24 hours incubation in thioglycollate broth), animals are randomized into groups of 6 and housed in shoebox cages. The compound to be evaluated is dissolved in a minimal volume of either N,N-dimethylacetamide (DMA) or 95% ethanol (depending upon solubility). An equal volume of saline is added; if the drug comes out of solution an equal volume of polyethoxylated castor oil is added and then saline qs to a concentration such that the desired dose is delivered in 0.5 ml. The final concentration of DMA, ethanol and polyethoxylated castor oil is […]. Dilutions for lower doses are made with saline so there is a decreasing proportion of organic solvents in the vehicle with decreasing dosage. These vehicles provide soluble formulations (or suspensions). Formulations are prepared immediately prior to injection. The compound is administered ip on Days 1 through 5 (i.e. treatment is initiated 24 hrs after tumor inoculation). Each experiment includes three groups of 6 animals as untreated controls and animals treated with a positive control, cisplatin, at two dose levels. Animals are weighed as a group on Days 1, 5 and 9 and average weight change (Δ wt.) is used as a reflection of toxicity. Each experiment also includes an inoculum titration-groups of 8 mice inoculated ip with 10^5 to 10^0 P388 leukemia cells. The titration is used to calculate cell kill achieved by treatment with drugs. Animals are monitored daily for mortality and experiments are terminated after 45 days. […]

Series [2] is described as follows: maximally tolerated dose for female mice, ip qDX5 (P388 study). The series is classed as in vivo, mouse. The following applies: B62DF female mice, ip qDX5 regimen. The procedure: 10^6 P388 leukemia cells are inoculated ip in B6D2F1 mice. Twenty-four hours later, if the tumor inoculum proves to be free of bacterial contamination (as determined by 24 hours incubation in thioglycollate broth), animals are randomized into groups of 6 and housed in shoebox cages. The compound to be evaluated is dissolved in a minimal volume of either N,N-dimethylacetamide (DMA) or 95% ethanol (depending upon solubility). An equal volume of saline is added; if the drug comes out of solution an equal volume of polyethoxylated castor oil is added and then saline qs to a concentration such that the desired dose is delivered in 0.5 ml. The final concentration of DMA, ethanol and polyethoxylated castor oil is […]. Dilutions for lower doses are made with saline so there is a decreasing proportion of organic solvents in the vehicle with decreasing dosage. These vehicles provide soluble formulations (or suspensions). Formulations are prepared immediately prior to injection. The compound is administered ip on Days 1 through 5 (i.e. treatment is initiated 24 hrs after tumor inoculation). Each experiment includes three groups of 6 animals as untreated controls and animals treated with a positive control, cisplatin, at two dose levels. Animals are weighed as a group on Days 1, 5 and 9 and average weight change (Δ wt.) is used as a reflection of toxicity. Each experiment also includes an inoculum titration-groups of 8 mice inoculated ip with 10^5 to 10^0 P388 leukemia cells. The titration is used to calculate cell kill achieved by treatment with drugs. Animals are monitored daily for mortality and experiments are terminated after 45 days. The endpoint is median survival time (MST) and increase in lifespan (ILS) which is the percentage of increase in MST relative to untreated controls. Untreated controls inoculated ip with 10^6 P388 leukemia cells generally survive for a median of 9 to 11 days. A drug is considered active if it produces ≥25 percent ILS.
^(a) maximally tolerated dose for […] female mice on an ip qDX5

Another series relates to B16 melanoma. The series is described as follows: in vivo ip B16 melanoma assay, increase in lifespan. The following applies: mice bearing ip B16 melanoma; ip qD × 9; ILS ≥25% indicates activity. The arrangement: species or system mouse. The procedure:
(§1) In this system, groups of eight B6D2F1 mice are inoculated ip with 0.5 ml of a 10% (w:v) brei of B16 melanoma prepared from pooled sc tumors excised at 14-21 days from […] donor mice. Daily treatment is begun 24 hours after tumor impantation and is continued daily for ten (10) days. The route of drug administration is ip. The mice are monitored daily for survival for sixty (60) days. Antitumor activity is assessed by prolongation of median survival time. An ILS of≥25% indicates activity in this tumor model.
(§2) ^(b) maximally tolerated dose for B6D2F1 mice on an ipqD ×
(§3) 9 regimen (Regimen is preferably qD × 10 but supply of Compound No.
(§4) 3 was extinguished on day 9).
^(c) maximum increase in lifespan produced in mice bearing ip B16

Series [3] is described as follows: maximally tolerated dose for B6D2F1 mice, ip qD × 9 (B16 study). Format: in vivo, mouse. To be noted: ip qD × 9 regimen. On the procedure: as §1, §2, §3, §4

“And” between values parts separate entries of the source, which are not always exact repeats. Identical values can stand only once.

As for `c1ccc(P(CCP(c2ccccc2)c2ccccc2)c2ccccc2)cc1` [1,2-bis(diphenylphosphino)ethane], the cytotoxic activity entry in series [1] is “cytotoxic activity”.

`[Cl][Au][PH](CC[PH]([Au][Cl])(c1ccccn1)c1ccccn1)(c1ccccn1)c1ccccn1` [Compound 1, μ-[1,2-Bis(di-2-pyridylphosphino)ethane]bis(chlorogold)]: the “ILS (max), maximum increase in lifespan” value with P388 leukemia was 55% and 60%. The “MTD, maximally tolerated dose” value in series [2] was found to be 6 mg/kg.

For the molecule `[Cl][Au][PH](CC[PH]([Au][Cl])(c1ccncc1)c1ccncc1)(c1ccncc1)c1ccncc1` [Compound 2, μ-[1,2-Bis(di-4-pyridylphosphino)ethane]bis(chlorogold)], in series [2], the “MTD, maximally tolerated dose” value was determined as 12 mg/kg.

Regarding `[Au+].[Cl-].c1ccc(P(CCP(c2ccccn2)c2ccccn2)c2ccccn2)nc1.c1ccc(P(CCP(c2ccccn2)c2ccccn2)c2ccccn2)nc1` [Compound 3, Chlorobis[1,2-bis(di-2-pyridylphosphino)ethane]gold], the “ILS (max), maximum increase in lifespan” value in the series on P388 leukemia was 80% and 75% and 83% and 84%. Besides, in the series with B16 melanoma, the “ILS, maximum increase in lifespan” value came to 43%. For the same molecule, the “MTD, maximally tolerated dose” value is recorded as 8 mg/kg in series [2] and 10 mg/kg in series [3].

Regarding `OCC1OC([S][Au][PH](CC[PH]([Au][S]C2OC(CO)C(O)C(O)C2O)(c2ccccn2)c2ccccn2)(c2ccccn2)c2ccccn2)C(O)C(O)C1O` (stereo not shown) [Compound 4], the “ILS (max), maximum increase in lifespan” value in the series on P388 leukemia was 85% and 53% and 56%. In addition, the “MTD, maximally tolerated dose” value in series [2] is listed as 8 mg/kg.
